Data as given in patent US11608323B2 (SYNGENTA LIMITED, priority 2013, dated 2023).

Columns and labels:
Assay type in all cases: in vivo
ZEAMX [1] = assay: Pre-emergence herbicidal activity, glasshouse pot test; settings: rate 1000 g/Ha, evaluated after 13 days, scale 0-5
Method in brief: (§1)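 Sow in pots of standard soil; after one day under glasshouse conditions, spray compound (acetone/water 50:50 formulation, 0.5% Tween 20, diluted in water). Grow on at 24/16 °C, 14 h light, 65% humidity with twice-daily watering. Assess at 13 days, 0–5 damage scale.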

ECHCG [2] = assay: as above; settings: rate 1000 g/Ha, evaluated after 13 days, scale 0-5
Method in brief: as §1

AMARE [3] = assay: as above; settings: rate 1000 g/Ha, evaluated after 13 days, scale 0-5
Method in brief: as §1

ALOMY [4] = assay: as above; settings: rate 1000 g/Ha, evaluated after 13 days, scale 0-5
Method in brief: as §1

SETFA [5] = assay: as above; settings: rate 1000 g/Ha, evaluated after 13 days, scale 0-5
Method in brief: as §1

ABUTH [6] = assay: as above; settings: rate 1000 g/Ha, evaluated after 13 days, scale 0-5
Method in brief: as §1

ZEAMX [7] = assay: Post-emergence herbicidal activity, glasshouse pot test; settings: Zea mays; application post-emergence; rate 1000 g/Ha; evaluated after 13 days
Method in brief: (§2)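 Seeds were sown in standard soil and cultivated for 8 days under controlled glasshouse conditions. Seedlings were then sprayed with an aqueous solution of the formulated compound containing 0.5% Tween 20. Injury was rated after a further 13 days, where 5 indicated total damage.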

ECHCG [8] = assay: as above; settings: Echinochloa crus-galli; application post-emergence; rate 1000 g/Ha; evaluated after 13 days
Method in brief: as §2

AMARE [9] = assay: as above; settings: Amaranthus retroflexus; application post-emergence; rate 1000 g/Ha; evaluated after 13 days
Method in brief: as §2

ALOMY [10] = assay: as above; settings: Alopecurus myosuroides; application post-emergence; rate 1000 g/Ha; evaluated after 13 days
Method in brief: as §2

SETFA [11] = assay: as above; settings: Setaria faberi; application post-emergence; rate 1000 g/Ha; evaluated after 13 days
Method in brief: as §2

ABUTH [12] = assay: as above; settings: Abutilon theophrasti; application post-emergence; rate 1000 g/Ha; evaluated after 13 days
Method in brief: as §2
Wherever ABUTH damage score, application pre-emergence is given: key: 5=total damage to plant; 0=no damage to plant.
Wherever AMARE damage score, application pre-emergence is given: key: 5=total damage to plant; 0=no damage to plant.
Wherever Post-emergence herbicidal activity AMARE (damage score 0-5) is given: key: 5=total damage to plant; 0=no damage to plant.
Wherever Post-emergence herbicidal activity ECHCG (damage score 0-5) is given: key: 5=total damage to plant; 0=no damage to plant.

SMILES | ZEAMX damage score, application pre-emergence (ZEAMX [1]) | ECHCG damage score, application pre-emergence (ECHCG [2]) | AMARE damage score, application pre-emergence (AMARE [3]) | ALOMY damage score, application pre-emergence (ALOMY [4]) | SETFA damage score, application pre-emergence (SETFA [5]) | ABUTH damage score, application pre-emergence (ABUTH [6]) | Post-emergence herbicidal activity ZEAMX (damage score 0-5) (ZEAMX [7]) | Post-emergence herbicidal activity ECHCG (damage score 0-5) (ECHCG [8]) | Post-emergence herbicidal activity AMARE (damage score 0-5) (AMARE [9]) | Post-emergence herbicidal activity ALOMY (damage score 0-5) (ALOMY [10]) | Post-emergence herbicidal activity SETFA (damage score 0-5) (SETFA [11]) | Post-emergence herbicidal activity ABUTH (damage score 0-5) (ABUTH [12])
CCC1C(O)N(c2cc(C(F)(F)F)ccn2)C(=O)N1C (stereo not drawn) [Compound A1] | 3 | 5 | 5 | 4 | 5 | 5 | 3 | 5 | 5 | 5 | 5 | 5
CCCOC1C(O)N(c2cc(C(F)(F)F)ccn2)C(=O)N1C (stereo not drawn) [Compound A2] | 1 | 4 | 5 | 2 | 3 | 5 | 2 | 5 | 5 | 4 | 5 | 5
COC1C(O)N(c2cc(C(F)(F)F)ccn2)C(=O)N1C (stereo not drawn) [Compound A5] | 2 | 4 | 5 | 3 | 4 | 5 | 2 | 4 | 5 | 4 | 4 | 5
CN1C(=O)N(c2cc(C(F)(F)F)ccn2)C(O)C1O (stereo not drawn) [Compound A7, 4,5-dihydroxy-1-methyl-3-[4-(trifluoromethyl)-2-pyridyl]imidazolidin-2-one] | 1 | 3 | 5 | 4 | 4 | 5 | 4 | 5 | 5 | 4 | 5 | 5
CON1C(=O)N(c2cc(C(F)(F)F)ccn2)C(O)C1C (stereo not drawn) [Compound A8, 4-hydroxy-1-methoxy-5-methyl-3-[4-(trifluoromethyl)-2-pyridyl]imidazolidin-2-one] | 3 | 4 | 5 | 4 | 5 | 5 | 4 | 5 | 5 | 5 | 5 | 5
CC1C(O)N(c2cc(C(F)(F)F)c(-c3ccccn3)cn2)C(=O)N1C (stereo not drawn) [Compound A9] | 3 | 5 | 5 | 4 | 5 | 5 | 4 | 5 | 5 | 5 | 5 | 5
CCOC1C(O)N(c2cc(C(F)(F)F)c(OC)cn2)C(=O)N1C (stereo not drawn) [Compound A10] | 3 | 5 | 5 | 4 | 5 | 5 | 4 | 5 | 5 | 5 | 5 | 5
CC1C(O)N(c2cc(C(F)(F)F)c(-c3cncnc3)cn2)C(=O)N1C (stereo not drawn) [Compound A11] | 3 | 4 | 5 | 4 | 5 | 5 | 4 | 5 | 5 | 4 | 5 | 5
COc1cnc(N2C(=O)N(C)C(C)C2O)cc1C(F)(F)F (stereo not drawn) [Compound A12, 5-hydroxy-1-[5-methoxy-4-(trifluoromethyl)-2-pyridyl]-3,4-dimethyl-imidazolidin-2-one] | 3 | 5 | 5 | 4 | 5 | 5 | 5 | 5 | 5 | 5 | 5 | 5
CCOC1C(O)N(c2cc(C(F)(F)F)c(-c3ccccc3)cn2)C(=O)N1C (stereo not drawn) [Compound A13] | 1 | 3 | 5 | 3 | 3 | 5 | 0 | 5 | 5 | 4 | 5 | 5
